According to patent EP3428169A1, “6,6A-DIHYDRO FURO[3,2-B]FURAN-2-(5H)ONE DERIVATIVES, THEIR PREPARATION AND USE FOR TREATING TUMORS” (Universita' Della Calabria, priority 2017, dated 2019):

Legend:
[1] = system: MCF-10A cells; assay: Cell viability assay: MTT test, non-tumour cells; format: cell-based, human; conditions: 72 h treatment; for reduction in cell viability of MCF-10A cells (in words): 1-40 µM; for concentration(s) giving inhibitory effect on viability of MCF-10A cells: tested at 1, 5, 10, 20, 40 µM
Procedure: (§1) All cell lines were obtained from the American Type Culture Collection (ATCC, Manassas, VA, USA). The human mammary adenocarcinoma cells (MCF-7) were cultured in DMEM-F12 (Dulbecco's Modified Eagle's Medium (DME) and Ham's F-12 Nutrient Mixture) containing 5% newborn calf serum (NCS), 1% glutamine, 1% penicillin/streptomycin (Sigma-Aldrich, Milan, Italy). The TNBC cells (MDA-MB-231 and MDA-MB-468) were cultured in DMEM-F12 containing 10% heat-inactivated foetal bovine serum (FBS), 1% glutamine, 1% penicillin/streptomycin (Sigma-Aldrich, Milan, Italy). The 3T3L- cells 1 (immortalised mouse fibroblasts) were cultured in DMEM (Dulbecco's Modified Eagle's medium) containing 10% heat-inactivated foetal bovine serum (FBS) and 1% penicillin/streptomycin (Sigma-Aldrich, Milan, Italy). The human mammary epithelial cells MCF-10A were maintained in DMEM-F12 with 5% horse serum (HS), 1% glutamine, 1% penicillin/streptomycin, 5 µg/ml of insulin, 0.25 mg/ml of hydrocortisone, 20 ng/ml of hEGF (human epidermal growth factor) and 0.05 mg/ml of cholera enterotoxin (Sigma-Aldrich, Milan, Italy).
(§2) All cell lines were maintained at 37°C in a 5% CO2 humidified atmosphere and periodically screened for mycoplasma contamination.
(§3) Cell viability was evaluated using a colorimetric assay which exploits the conversion, by the mitochondrial enzyme succinate dehydrogenase (SDH), of the bromide reagent of 3-(4,5-dimethylthiazol-2-il)-2,5-diphenyltetrazole (MTT) (Sigma-Aldrich, Milan, Italy) into crystals of a product called formazan (blue-coloured).
(§4) The cells were seeded in 48-well plates (25,000 cells/well), cultured for 72h in a complete medium before being treated for 72h with different doses (1, 5, 10, 20, 40 µM) of compounds A1, A2, A3, A4 and A5. At the end of the treatment the cells were incubated in darkness for 3h with 50 µl of a solution of MTT in PBS (2 mg/ml). The MTT solution was then carefully removed and the formazan salts that had formed were solubilised by adding 200 µl of DMSO (dimethyl sulphoxide) (Sigma-Aldrich, Milan, Italy), which imparts a pinkish colour to the solution. The coloured product was detected with the spectrophotometric method, by reading absorbance at the wavelength of 570 nm.
(§5) Cell viability was evaluated with the MTT colorimetric assay as described above.

[2] = system: MCF-7 cells; assay: Cell viability assay: MTT test; format: cell-based, human; conditions: for minimal effective concentration: Homo sapiens, MCF7, 72 h treatment, tested at 1, 5, 10, 20, 40 µM, p<0.05 vs untreated, read-out: concentration(s) giving significant reduction in the viability of MCF-7 cells
[3] = system: 3T3-L1 cells; assay: Cell viability assay: MTT test, non-tumour cells; format: cell-based, mouse; conditions: 72 h treatment; for reduction in cell viability of 3T3-L1 cells (in words): 1-40 µM; for concentration(s) giving inhibitory effect on viability of 3T3-L1 cells: tested at 1, 5, 10, 20, 40 µM
Procedure: as §1, §2, §3, §4, §5

[4] = system: MDA-MB-231 cells; assay: Cell viability assay: MTT test; format: cell-based; conditions: for minimal effective concentration: Homo sapiens, MDA-MB-231, 72 h treatment, tested at 1, 5, 10, 20, 40 µM, p<0.05 vs untreated, read-out: concentration(s) giving significant reduction in the viability of MDA-MB-231 cells
[5] = system: MDA-MB-468 cells; assay: Cell viability assay: MTT test; format: cell-based; conditions: for minimal effective concentration: Homo sapiens, MDA-MB-468, 72 h treatment, tested at 1, 5, 10, 20, 40 µM, p<0.05 vs untreated, read-out: concentration(s) giving significant reduction in the viability of MDA-MB-468 cells
[6] = system: parp-1 protein; assay: Western blot analysis of cleavage/inactivation of parp-1; format: cell-based, human; conditions: 20 µM, 48h
Procedure: The MCF-7, MDA-MB-231 and MDA-MB-468 cells were cultured in a complete medium for 72h in 60 mm plates (1 x 10^6 cells) before being treated for 48h with compound A4 (20 µM). After the treatment the cells were lysed in ice with RIPA (Radio-Immune Precipitation Assay) buffer (50 mM Tris HCI, pH 8.0, 150 mM NaCl, 1% NP-40, 0.5% sodium deoxycholate, 0.1% SDS, sodium dodecyl sulphate), containing protease inhibitors (1 mM phenylmethylsulphonyl fluoride (PMSF), 1mM sodium orthovanadate, 20 µM aprotinin, 20 µM leupeptin) for protein extraction. The lysates were maintained under ice for 10 minutes, then centrifuged for 10 minutes at 13000 rpm at 4°C. The protein content present in the supernatant was determined spectrophotometrically using the Bradford method. The proteins were separated, based on their molecular weight, in a sodium dodecyl sulphate-polyacrylamide gel (12%) (SDS-PAGE) and then transferred onto a nitrocellulose membrane. […]
In order to be able to visualise the interaction between the primary antibody and the protein of interest, the membranes were incubated for 1 hour at room temperature, after washing with TBS-T 1X three times in order to remove any traces of the primary antibody, with a specific secondary antibody conjugated to the enzyme horseradish peroxidase (HRP) and directed against the constant portion of the primary antibody. […] In order to normalise the result, the various membranes were hot stripped for 30 minutes at 50°C with a stripping buffer (62.5 mM Tris-HCI pH 6.7, 2% SDS, 100mM β-mercaptoethanoi) and re-incubated overnight with the antibody anti-glyceraldehyde 3-phosphate dehydrogenase (GAPDH) (1: 1000) (Santa Cruz Biotechnology, Santa Cruz, CA, USA) used as a control for the quantities of proteins loaded.

[7] = system: cytochrome c; assay: Western blot analysis of cytochrome c in the cytosolic protein fraction; format: cell-based, human; conditions: 20 µM, 48h
Procedure: (§6) A further confirmation of the ability of the compound of formula A4 to induce the death, by apoptosis, of MCF-7, MDA-MB231 and MDA-MB468 tumour cells was given by the evaluation, through western blot analysis, of its effect on the expression of the anti-apoptotic bcl-2 protein and on the appearance of cytochrome c in the cytosolic compartment.
(§7) The cells were cultured in a complete medium for 72 h in 60 mm plates (1 x 10^6 cells) before being treated for 48h with compound A4 (20 µM) in order to evaluate the protein expression of bcl-2 and the expression of the cytochrome c present in the cytosolic protein fraction.
For the purpose of analysing the protein expression of the cytochrome c present in the cytosolic fraction, after treatment the cells were collected by centrifugation at 2500 rpm for 10 minutes at 4°C. The pellets were resuspended in 50 µl of sucrose buffer (250 mM sucrose, 10 mM Hepes, 10 mM KCl, 1.5 mM MgCl2, 1 mM EDTA, 1 mM EGTA) (Sigma-Aldrich, Milan, Italy) containing 20µM of aprotinin, 20 µM of leupeptin, 1mM of PMSF and 0.05% of digitonin (Sigma-Aldrich, Milan, Italy).
The cells were incubated for 20 minutes at 4°C and then centrifuged at 13000 rpm for 15 minutes at 4°C. The protein content present in the supernatant was determined spectrophotometrically using the Bradford method. The proteins were separated, based on their molecular weight, in a sodium dodecyl sulphate-polyacrylamide gel (15%) (SDS-PAGE) and then subjected to a western blot analysis as described above, using a specific primary anti-cytochrome c antibody (1:1000) (Santa Cruz Biotechnology, Santa Cruz, CA, USA).

[8] = system: bcl-2 protein; assay: Western blot analysis of expression of anti-apoptotic bcl-2; format: cell-based, human; conditions: 20 µM, 48h
Procedure: as §6, §7
For an analysis of the protein expression of bcl-2, after treatment the cells were lysed in ice with RIPA (Radio-Immune Precipitation Assay) buffer (50 mM Tris HCI, pH 8.0, 150 mM NaCl, 1% NP-40, 0.5% sodium deoxycholate, 0.1% SDS, sodium dodecyl sulphate), containing protease inhibitors (1 mM phenylmethylsulphonyl fluoride (PMSF), 1mM sodium orthovanadate, 20 µM aprotinin, 20 µM leupeptin) for protein extraction. The lysates were maintained under ice for 10 minutes, then centrifuged for 10 minutes at 13000 rpm at 4°C. The protein content present in the supernatant was determined spectrophotometrically using the Bradford method. The proteins were separated, based on their molecular weight, in a sodium dodecyl sulphate-polyacrylamide gel (12%) (SDS-PAGE) and then subjected to a western blot analysis as described above, using a specific primary anti-bcl-2 antibody (1:500) (Santa Cruz Biotechnology, Santa Cruz, CA, USA).

Compound | reduction in cell viability of MCF-10A cells (in words) [1] | concentration(s) giving inhibitory effect on viability of MCF-10A cells [1] | minimal effective concentration [2] | reduction in cell viability of 3T3-L1 cells (in words) [3] | concentration(s) giving inhibitory effect on viability of 3T3-L1 cells [3] | minimal effective concentration [4] | minimal effective concentration [5] | effect on the viability of MCF-7 cells (in words) ([2]; 72 h treatment, 1-40 µM) | effect on the viability of MDA-MB-231 cells (in words) ([4]; 72 h treatment, 1-40 µM) | effect on the viability of MDA-MB-468 cells (in words) ([5]; 72 h treatment, 1-40 µM) | cleavage of the parp-1 protein ([6]; MCF-7 cells) | cleavage of the parp-1 protein ([6]; MDA-MB-231 cells) | cleavage of the parp-1 protein ([6]; MDA-MB-468 cells) | level of cytochrome c in the cytosolic fraction ([7]; MCF-7 cells) | level of cytochrome c in the cytosolic fraction ([7]; MDA-MB-231 cells) | level of cytochrome c in the cytosolic fraction ([7]; MDA-MB-468 cells) | expression of bcl-2 ([8]; MCF-7 cells) | expression of bcl-2 ([8]; MDA-MB-231 cells) | expression of bcl-2 ([8]; MDA-MB-468 cells)
CC12CCOC1=C([Si](C)(C)C)C(=O)O2 (stereo not shown) [Compound A3, 6a-methyl-3-(trimethylsilyl)-6,6a-dihydrofuro[3,2-b]furan-2(5H)-one] | more substantial | ≥ 10 µM | ≥ 10 µM | more substantial | 40 µM | ≥ 5 µM | ≥ 5 µM |  |  |  |  |  |  |  |  |  |  |  | 
CC1(C)CC2(c3ccccc3)OC(=O)C=C2O1 (stereo not shown) [Compound A5, 5,5-dimethyl-6a-phenyl-6,6a-dihydrofuro[3,2-b]furan-2(5H)-one] | not influenced |  | 5 to 40 µM | not influenced |  | 20 to 40 µM | 10 to 40 µM | modest but significant effect | modest but significant effect | slightly more effective |  |  |  |  |  |  |  |  | 
CC1(C)CC2(C)OC(=O)C([Si](C)(C)C)=C2O1 (stereo not shown) [Compound A2, 5,5,6a-trimethyl-3-(trimethylsilyl)-6,6a-dihydrofuro[3,2-b]furan-2(5H)-one] | modest | ≥ 5 µM | ≥ 1 µM | modest | ≥ 20 µM | ≥ 1 µM | ≥ 1 µM |  |  |  |  |  |  |  |  |  |  |  | 
CC1(C)CC2(c3ccccc3)OC(=O)C([Si](C)(C)C)=C2O1 (stereo not shown) [Compound A4, 5,5-dimethyl-6a-phenyl-3-(trimethylsilyl)-6,6a-dihydrofuro[3,2-b]furan-2(5H)-one] | not influenced |  | 1 to 40 µM | not influenced |  | 10 to 40 µM | 10 to 40 µM |  |  |  | the cleaved form of the parp-1 protein may be seen | the cleaved form of the parp-1 protein may be seen | the cleaved form of the parp-1 protein may be seen | increased to a significant degree | increased to a significant degree | increased to a significant degree | decreasing the expression of bcl-2 | decreasing the expression of bcl-2 | decreasing the expression of bcl-2
CC1(C)CC2(C)OC(=O)C(c3ccccc3)=C2O1 (stereo not shown) [Compound A1, 5,5,6a-trimethyl-3-phenyl-6,6a-dihydrofuro[3,2-b]furan-2(5H)-one] | more substantial | ≥ 20 µM | ≥ 10 µM | more substantial | 40 µM | ≥ 10 µM | ≥ 5 µM |  |  |  |  |  |  |  |  |  |  |  | 
